In patent publication US20240246977A1, “DEGRADATION OF BRUTON'S TYROSINE KINASE (BTK) BY CONJUGATION OF BTK INHIBITORS WITH E3 LIGASE LIGAND AND METHOD OF USE” (BeiGene Switzerland GmbH, priority 2021, published 2024) one finds IC50 and DC50 data, which are given here for 16 molecules.

One assay concerns HEK-293 cells. The experiment in a line: HEK-293 cytotoxicity detection (CellTiter-Glo). It counts as cell-based. The note with it: Homo sapiens, 72 h, 72 h incubation, CellTiter-Glo luminescence, read-out: HEK293. In short, it runs like this:
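HEK-293 cells exposed 72 h to 8 compounds doses (4-fold dilutions, top stock 5 mM at 500×) in 0.2% DMSO. Viability by CellTiter-Glo luminescence; inhibition normalised to DMSO high control and low control, IC50 from four-parameter curve fit.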
A general note: ATP-based viability assays read luminescence as a measure of living cells.

The target in another assay is BTK (Homo sapiens, UniProt Q06187). In words: BTK cell degradation in TMD-8 cells, HTRF assay. More on the design: endogenous in cells; host or cells: TMD-8 cells. It counts as cell-based. The settings on record: 6 h treatment, IC50 (DC50) of BTK degradation. The procedure, abridged:
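TMD-8 cells treated 6 h with 8-dose series (6-fold dilutions, 0.2% DMSO final), then lysed and BTK quantified by HTRF (337/665/620 nm) after overnight antibody incubation at room temperature. Degradation normalized to DMSO high and low controls; DC50 and Dmax from four-parameter fit.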

Chain of BTK (Q06187 whole entry): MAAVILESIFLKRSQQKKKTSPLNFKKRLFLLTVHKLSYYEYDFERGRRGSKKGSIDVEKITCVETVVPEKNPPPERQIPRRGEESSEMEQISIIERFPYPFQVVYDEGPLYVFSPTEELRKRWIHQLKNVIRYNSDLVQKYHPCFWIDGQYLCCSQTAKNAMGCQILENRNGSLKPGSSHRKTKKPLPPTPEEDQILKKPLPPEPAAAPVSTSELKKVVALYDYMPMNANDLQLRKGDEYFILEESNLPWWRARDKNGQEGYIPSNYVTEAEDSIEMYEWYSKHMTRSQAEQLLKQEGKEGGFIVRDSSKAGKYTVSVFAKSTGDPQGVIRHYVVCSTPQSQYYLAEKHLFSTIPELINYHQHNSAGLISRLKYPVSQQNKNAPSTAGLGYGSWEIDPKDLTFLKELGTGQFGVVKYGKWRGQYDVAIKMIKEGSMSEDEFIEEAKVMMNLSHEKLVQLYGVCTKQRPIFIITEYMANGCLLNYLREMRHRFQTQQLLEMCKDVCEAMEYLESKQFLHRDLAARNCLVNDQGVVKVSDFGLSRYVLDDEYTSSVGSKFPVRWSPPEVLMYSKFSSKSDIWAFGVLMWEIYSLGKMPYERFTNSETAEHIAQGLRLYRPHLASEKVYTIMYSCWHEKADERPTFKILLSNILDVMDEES

As usually defined, the DC50 is the concentration giving 50% degradation. Low values mean a more potent degrader, high ones a less potent degrader. With `NC(=O)c1c(-c2ccc(Oc3ccccc3)cc2)nn2c1Nc1ccc(NC(=O)COCCOCCOCCOCCNc3cccc4c3C(=O)N(C3CCC(=O)NC3=O)C4=O)cc1CC2` (centres unmarked) [Example A2, 7-(14-((2-(2,6-dioxopiperidin-3-yl)-1,3-dioxoisoindolin-4-yl)amino)-3,6,9,12-tetraoxatetradecanamido)-2-(4-phenoxyphenyl)-9,10-dihydro-4H-benzo[d]pyrazolo[1,5-a][1,3]diazepine-3-carboxamide], the IC50 in the assay on HEK-293 cells was found to be 557 nM. Moreover, half-maximal degradation at BTK (DC50) was put at 1.85 nM.
In the same order, the values of `COc1ccccc1C(=O)NCc1cc(F)c(-c2nn3c(c2C(N)=O)Nc2ccc(N4CCN(CC5CCN(c6ccc(N7CCC(=O)NC7=O)cc6)CC5)CC4)cc2CC3)cc1C` [Example C48, 7-(4-((1-(4-(2,4-dioxotetrahydropyrimidin-1(2H)-yl)phenyl)piperidin-4-yl)methyl)piperazin-1-yl)-2-(2-fluoro-4-((2-methoxybenzamido)methyl)-5-methylphenyl)-9,10-dihydro-4H-benzo[d]pyrazolo[1,5-a][1,3]diazepine-3-carboxamide] are above 10000 nM and 3.52 nM.
In the same order, the values of `Cc1c(C(=O)Nc2ccc3[nH]ccc3n2)ccc(-c2nn3c(c2C(N)=O)Nc2ccc(N4CCN(CC5CCN(c6ccc(N7CCC(=O)NC7=O)cc6)CC5)CC4)cc2CC3)c1F` [Example B45, 2-(4-((1H-pyrrolo[3,2-b]pyridin-5-yl)carbamoyl)-2-fluoro-3-methylphenyl)-7-(4-((1-(4-(2,4-dioxotetrahydropyrimidin-1(2H)-yl)phenyl)piperidin-4-yl)methyl)piperazin-1-yl)-9,10-dihydro-4H-benzo[d]pyrazolo[1,5-a][1,3]diazepine-3-carboxamide] are above 10000 nM and 1.69 nM.
In the same order, the values of `Cc1cncc(NC(=O)c2ccc(-c3nn4c(c3C(N)=O)Nc3ccc(N5CCN(CC6CCN(c7ccc(N8CCC(=O)NC8=O)cc7)CC6)CC5)cc3CC4)c(F)c2C)n1` [Example B40, 7-(4-((1-(4-(2,4-dioxotetrahydropyrimidin-1(2H)-yl)phenyl)piperidin-4-yl)methyl)piperazin-1-yl)-2-(2-fluoro-3-methyl-4-((6-methylpyrazin-2-yl)carbamoyl)phenyl)-9,10-dihydro-4H-benzo[d]pyrazolo[1,5-a][1,3]diazepine-3-carboxamide] are above 10000 nM and 5.69 nM.
For the molecule `COc1c(F)cccc1C(=O)NCc1ccc(-c2nn3c(c2C(N)=O)Nc2ccc(N4CCN(CC5CCN(c6ccc(N7CCC(=O)NC7=O)cc6)CC5)CC4)cc2CC3)cc1C` [Example C40, 7-(4-((1-(4-(2,4-dioxotetrahydropyrimidin-1(2H)-yl)phenyl)piperidin-4-yl)methyl)piperazin-1-yl)-2-(4-((3-fluoro-2-methoxybenzamido)methyl)-3-methylphenyl)-9,10-dihydro-4H-benzo[d]pyrazolo[1,5-a][1,3]diazepine-3-carboxamide], the IC50 in the assay with HEK-293 cells was above 10000 nM. For the same molecule, the DC50 on BTK was 10.5 nM.
In the same order, the values of `COc1cnccc1C(=O)NCc1ccc(-c2nn3c(c2C(N)=O)Nc2ccc(N4CCN(CC5CCN(c6ccc(N7CCC(=O)NC7=O)cc6)CC5)CC4)cc2CC3)cc1C` [Example C37, 7-(4-((1-(4-(2,4-dioxotetrahydropyrimidin-1(2H)-yl)phenyl)piperidin-4-yl)methyl)piperazin-1-yl)-2-(4-((3-methoxyisonicotinamide)methyl)-3-methylphenyl)-9,10-dihydro-4H-benzo[d]pyrazolo[1,5-a][1,3]diazepine-3-carboxamide] are above 10000 nM and 12.4 nM.
In the same order, the values of `NC(=O)c1c(-c2ccc(Oc3ccccc3)cc2)nn2c1Nc1cc(C3CCN(CC4CCN(c5ccc(N6CCC(=O)NC6=O)cc5)CC4)CC3)ccc1CC2` [Example A27, 6-(1-((1-(4-(2,4-dioxotetrahydropyrimidin-1(2H)-yl)phenyl)piperidin-4-yl)methyl)piperidin-4-yl)-2-(4-phenoxyphenyl)-9,10-dihydro-4H-benzo[d]pyrazolo[1,5-a][1,3]diazepine-3-carboxamide] are 317 nM and 6.73 nM.
In the same order, the values of `Cc1nc(NC(=O)c2ccc(-c3nn4c(c3C(N)=O)Nc3ccc(N5CCN(CC6CN(c7ccc(N8CCC(=O)NC8=O)cc7)C6)CC5)cc3CC4)c(F)c2C)ccc1Cl` [Example B53, 2-(4-((5-chloro-6-methylpyridin-2-yl)carbamoyl)-2-fluoro-3-methylphenyl)-7-(4-((1-(4-(2,4-dioxotetrahydropyrimidin-1(2H)-yl)phenyl)azetidin-3-yl)methyl)piperazin-1-yl)-9,10-dihydro-4H-benzo[d]pyrazolo[1,5-a][1,3]diazepine-3-carboxamide] are above 10000 nM and 18.6 nM.
In the case of `NC(=O)c1c(-c2ccc(C(=O)Nc3cc(C(F)F)ccn3)cc2)nn2c1Nc1ccc(N3CCN(CC4CCN(c5ccc(N6CCC(=O)NC6=O)cc5)CC4)CC3)cc1CC2` [Example B18, 2-(4-((4-(difluoromethyl)pyridin-2-yl)carbamoyl)phenyl)-7-(4-((1-(4-(2,4-dioxotetrahydropyrimidin-1(2H)-yl)phenyl)piperidin-4-yl)methyl)piperazin-1-yl)-9,10-dihydro-4H-benzo[d]pyrazolo[1,5-a][1,3]diazepine-3-carboxamide], the IC50 in the assay on HEK-293 cells was above 10000 nM. It took 0.378 nM to reach half-maximal degradation at BTK (DC50).
In the same order, the values of `Cc1nc(NC(=O)c2ccc(-c3nn4c(c3C(N)=O)Nc3ccc(N5CCN(CC6CCN(c7ccc(N8CCC(=O)NC8=O)cc7)CC6)CC5)nc3CC4)c(F)c2C)ccc1Cl` [Example B52, 2-(4-((5-chloro-6-methylpyridin-2-yl)carbamoyl)-2-fluoro-3-methylphenyl)-7-(4-((1-(4-(2,4-dioxotetrahydropyrimidin-1(2H)-yl)phenyl)piperidin-4-yl)methyl)piperazin-1-yl)-9,10-dihydro-4H-pyrazolo[1,5-a]pyrido[3,2-d][1,3]diazepine-3-carboxamide] are above 10000 nM and 4.06 nM.
In the same order, the values of `NC(=O)c1c(-c2ccc(Oc3ccccc3)cc2)nn2c1Nc1cc(C3CCN(CC4CCN(c5ccc(NC6CCC(=O)NC6=O)cc5)CC4)CC3)ccc1CC2` (centres unmarked) [Example A35, 6-(1-((1-(4-((2,6-dioxopiperidin-3-yl)amino)phenyl)piperidin-4-yl)methyl)piperidin-4-yl)-2-(4-phenoxyphenyl)-9,10-dihydro-4H-benzo[d]pyrazolo[1,5-a][1,3]diazepine-3-carboxamide] are 241 nM and 69.1 nM.
With `Cc1cccc(NC(=O)c2ccc(-c3nn4c(c3C(N)=O)Nc3ccc(N5CCN(CC6CCN(c7ccc(N8CCC(=O)N(CC(=O)OCc9ccccc9)C8=O)cc7)CC6)CC5)cc3CC4)c(F)c2C)n1` [Example B80, benzyl 2-(3-(4-(4-((4-(3-carbamoyl-2-(2-fluoro-3-methyl-4-((6-methylpyridin-2-yl)carbamoyl)phenyl)-9,10-dihydro-4H-benzo[d]pyrazolo[1,5-a][1,3]diazepin-7-yl)piperazin-1-yl)methyl)piperidin-1-yl)phenyl)-2,6-dioxotetrahydropyrimidin-1(2H)-yl)acetate], in the assay with HEK-293 cells, the IC50 was above 10000 nM. On BTK, the DC50 is above 2000 nM.
On to `CCC(Nc1cc(C(F)(F)F)ccn1)c1ccc(-c2nn3c(c2C(N)=O)Nc2ccc(N4CCN(CC5CCN(c6ccc(N7CCC(=O)NC7=O)cc6)CC5)CC4)cc2CC3)cc1` (centres unmarked) [Example C17, 7-(4-((1-(4-(2,4-dioxotetrahydropyrimidin-1(2H)-yl)phenyl)piperidin-4-yl)methyl)piperazin-1-yl)-2-(4-(1-((4-(trifluoromethyl)pyridin-2-yl)amino)propyl)phenyl)-9,10-dihydro-4H-benzo[d]pyrazolo[1,5-a][1,3]diazepine-3-carboxamide], for which the IC50 in the assay on HEK-293 cells was above 10000 nM. On BTK, this molecule showed a DC50 of 55.1 nM.
In the same order, the values of `Cc1cccc(NC(=O)c2ncc(-c3nn4c(c3C#N)Nc3ccc(N5CCN(CC6CCN(c7ccc(N8CCC(=O)NC8=O)cc7)CC6)CC5)cc3CC4)cc2C)n1` [Example B31, 5-(3-cyano-7-(4-((1-(4-(2,4-dioxotetrahydropyrimidin-1(2H)-yl)phenyl)piperidin-4-yl)methyl)piperazin-1-yl)-9,10-dihydro-4H-benzo[d]pyrazolo[1,5-a][1,3]diazepin-2-yl)-3-methyl-N-(6-methylpyridin-2-yl)picolinamide] are 133 nM and above 2000 nM.
In the same order, the values of `COc1cccnc1C(=O)NCc1ccc(-c2nn3c(c2C(N)=O)Nc2ccc(N4CCN(CC5CCN(c6ccc(N7CCC(=O)NC7=O)cc6)CC5)CC4)cc2CC3)cc1C` [Example C36] are above 10000 nM and 6.66 nM.
In the same order, the values of `NC(=O)c1c(-c2ccc(C3(Nc4cc(C(F)(F)F)ccn4)CC3)cc2)nn2c1Nc1ccc(N3CCN(CC4CCN(c5ccc(N6CCC(=O)NC6=O)cc5)CC4)CC3)cc1CC2` [Example C16, 7-(4-((1-(4-(2,4-dioxotetrahydropyrimidin-1(2H)-yl)phenyl)piperidin-4-yl)methyl)piperazin-1-yl)-2-(4-(1-((4-(trifluoromethyl)pyridin-2-yl)amino)cyclopropyl)phenyl)-9,10-dihydro-4H-benzo[d]pyrazolo[1,5-a][1,3]diazepine-3-carboxamide] are above 10000 nM and 60.1 nM.
